# Measured values taken from patent US20250059180A1 (DONG WHA PHARM. CO., LTD., priority 2022, published 2025).
# Like-named read-outs stand apart in the source and are kept apart here.
# Tested on: Pfeiffer cells, lymphoma cells having EZH2 mutation (A677G)
# Test: Proliferation inhibition of cells of hematologic malignancies (CCK-8, 11 days)
# Assay type: cell-based
# Conditions: 11 days culture, read-out: Cell proliferation inhibitory effect (IC50)
# Outline: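 Pfeiffer lymphoma cells (EZH2 A677G) in RPMI1640 with 10% FBS were seeded at 10,000 cells/well and exposed to test material for 11 days, with compound replaced every 3–4 days. Viability was read by CCK-8 absorbance at 450 nm, and IC50 was derived by non-linear regression curve fitting.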
SMILES,IC50 [nM],"IC50 (Homo sapiens, Pfeiffer, 264 h) [nM]"
"CCN1CCC(C2(C)Oc3c(-c4cnc(N(C)CC)nc4)cc(C(=O)NCc4c(SC)cc(C)[nH]c4=O)c(C)c3O2)CC1 (single isomer, unassigned) [Compound 84, 7-(2-(ethyl(methyl)amino)pyrimidin-5-yl)-2-(1-ethylpiperidin-4-yl)-2,4-dimethyl-N-((6-methyl-4-(methylthio)-2-oxo-1,2-dihydropyridin-3-yl)methyl)benzo[d][1,3]dioxole-5-carboxamide]",≥ 100,
"CSc1cc(C)[nH]c(=O)c1CNC(=O)c1cc(-c2cnc(N(C)C)nc2)c2c(c1C)OC(C)(C1CCN(CC(F)(F)F)CC1)O2 (stereo not drawn) [Compound 35, 7-(2-(dimethylamino)pyrimidin-5-yl)-2,4-dimethyl-N-((6-methyl-4-(methylthio)-2-oxo-1,2-dihydropyridin-3-yl)methyl)-2-(1-(2,2,2-trifluoroethyl)piperidin-4-yl)benzo[d][1,3]dioxole-5-carboxamide]",,≤ 10
"CSc1cc(C)[nH]c(=O)c1CNC(=O)c1cc(-c2ccc(N3C[C@@H](C)O[C@@H](C)C3)nc2)c2c(c1C)OC(C)([C@H]1CC[C@H](N(C)C[C@H](C)O)CC1)O2 (stereo partly drawn) [Compound 29, 7-(6-((2S,6R)-2,6-dimethylmorpholino)pyridin-3-yl)-2-(trans-4-(((S)-2-hydroxypropyl)(methyl)amino)cyclohexyl)-2,4-dimethyl-N-((6-methyl-4-(methylthio)-2-oxo-1,2-dihydropyridin-3-yl)methyl)benzo[d][1,3]dioxole-5-carboxamide]",,≤ 10
"CSc1cc(C)[nH]c(=O)c1CNC(=O)c1cc(-c2ccc(Cl)s2)c2c(c1C)OC(C)([C@H]1CC[C@H](N(C)C)CC1)O2 (stereo partly drawn) [Compound 19, 7-(5-chlorothiophen-2-yl)-2-(trans-4-(dimethylamino)cyclohexyl)-2,4-dimethyl-N-((6-methyl-4-(methylthio)-2-oxo-1,2-dihydropyridin-3-yl)methyl)benzo[d][1,3]dioxole-5-carboxamide]",,≤ 10
"COCCN(C)[C@H]1CC[C@H](C2(C)Oc3c(-c4cnc(N(C)C)nc4)cc(C(=O)NCc4c(SC)cc(C)[nH]c4=O)c(C)c3O2)CC1 (stereo partly drawn) [Compound 26, 7-(2-(dimethylamino)pyrimidin-5-yl)-2-(trans-4-((2-methoxyethyl)(methyl)amino)cyclohexyl)-2,4-dimethyl-N-((6-methyl-4-(methylthio)-2-oxo-1,2-dihydropyridin-3-yl)methyl)benzo[d][1,3]dioxole-5-carboxamide]",,≤ 10
"CSc1cc(C)[nH]c(=O)c1CNC(=O)c1cc(-c2ccc(N3CCOCC3)nc2)c2c(c1C)OC(C)(C1CCN(CC(F)(F)F)CC1)O2 (stereo not drawn) [Compound 63, 2,4-dimethyl-N-((6-methyl-4-(methylthio)-2-oxo-1,2-dihydropyridin-3-yl)methyl)-7-(6-morpholinopyridin-3-yl)-2-(1-(2,2,2-trifluoro)piperidin-4-yl)benzo[d][1,3]dioxole-5-carboxamide]",≥ 100,
"COC(CN(C)[C@H]1CC[C@H](C2(C)Oc3c(-c4ccc(N5C[C@@H](C)O[C@@H](C)C5)nc4)cc(C(=O)NCc4c(SC)cc(C)[nH]c4=O)c(C)c3O2)CC1)OC (stereo partly drawn) [Compound 31, 2-(trans-4-((2,2-dimethoxyethyl)(methyl)amino)cyclohexyl)-7-(6-((2S,6R)-2,6-dimethylmorpholino)pyridin-3-yl)-2,4-dimethyl-N-((6-methyl-4-(methylthio)-2-oxo-1,2-dihydropyridin-3-yl)methyl)benzo[d][1,3]dioxole-5-carboxamide]",,≤ 10
"CSc1cc(C)[nH]c(=O)c1CNC(=O)c1cc(-c2cnc(N3CCOCC3)nc2)c2c(c1C)OC(C)(C1CCN(CC(F)(F)F)CC1)O2 (stereo not drawn) [Compound 70, 2,4-dimethyl-N-((6-methyl-4-(methylthio)-2-oxo-1,2-dihydropyridin-3-yl)methyl)-7-(2-morpholinopyrimidin-5-yl)-2-(1-(2,2,2-trifluoro)piperidin-4-yl)benzo[d][1,3]dioxole-5-carboxamide]",≥ 100,
"CSc1cc(C)[nH]c(=O)c1CNC(=O)c1cc(-c2ccc(N3C[C@@H](C)O[C@@H](C)C3)nc2)c2c(c1C)OC(C)(C1CCN(CC(F)(F)F)CC1)O2 (single isomer, unassigned) [Compound 45]",≥ 100,
"CSc1cc(C)[nH]c(=O)c1CNC(=O)c1cc(-c2ccc(N3C[C@@H](C)O[C@@H](C)C3)nc2)c2c(c1C)OC(C)(C1CCN(C3CCCCC3)CC1)O2 (single isomer, unassigned) [Compound 54]",≥ 100,

# Next, values leading:
IC50 [nM],"IC50 (Homo sapiens, Pfeiffer, 264 h) [nM]",SMILES
,≤ 10,"CSc1cc(C)[nH]c(=O)c1CNC(=O)c1cc(-c2ccc(N3C[C@@H](C)O[C@@H](C)C3)nc2)c2c(c1C)OC(C)([C@H]1CC[C@H](N3CC(OCC(F)F)C3)CC1)O2 (stereo partly drawn) [Compound 103, 2-(trans-4-(3-(2,2-difluoroethoxy)azetidin-1-yl)cyclohexyl)-7-(6-((2S,6R)-2,6-dimethylmorpholino)pyridin-3-yl)-2,4-dimethyl-N-((6-methyl-4-(methylthio)-2-oxo-1,2-dihydropyridin-3-yl)methyl)benzo[d][1,3]dioxole-5-carboxamide]"
,≤ 10,"CCN1CCC(C2(C)Oc3c(-c4ccc(N(C)CC)nc4)cc(C(=O)NCc4c(SC)cc(C)[nH]c4=O)c(C)c3O2)CC1 (single isomer, unassigned) [Compound 89, 7-(6-(ethyl(methyl)amino)pyridin-3-yl)-2-(1-ethylpiperidin-4-yl)-2,4-dimethyl-N-((6-methyl-4-(methylthio)-2-oxo-1,2-dihydropyridin-3-yl)methyl)benzo[d][1,3]dioxole-5-carboxamide]"
,≤ 10,"CSc1cc(C)[nH]c(=O)c1CNC(=O)c1cc(-c2cnc(N3CCCC3)nc2)c2c(c1C)OC(C)([C@H]1CC[C@H](N(C)C)CC1)O2 (stereo partly drawn) [Compound 5, 2-(trans-4-(dimethylamino)cyclohexyl)-2,4-dimethyl-N-((6-methyl-4-(methylthio)-2-oxo-1,2-dihydropyridin-3-yl)methyl)-7-(2-(pyrrolidin-1-yl)pyrimidin-5-yl)benzo[d][1,3]dioxole-5-carboxamide]"
,≤ 10,CCN(C)c1ncc(-c2cc(C(=O)NCc3c(SC)cc(C)[nH]c3=O)c(C)c3c2OC(C)(C2CCN(CC(F)(F)F)CC2)O3)cn1 (stereo not drawn) [Compound 78]
≤ 10,,"CSc1cc(C)[nH]c(=O)c1CNC(=O)c1cc(-c2ccc(N3C[C@@H](C)O[C@@H](C)C3)nc2)c2c(c1C)OC(C)(C1CCN(C3CCCCC3)CC1)O2 (single isomer, unassigned) [Compound 53]"
,≤ 10,"CSc1cc(C)[nH]c(=O)c1CNC(=O)c1cc(-c2cnc(N3CCC(F)(F)CC3)nc2)c2c(c1C)OC(C)([C@H]1CC[C@H](N(C)C)CC1)O2 (stereo partly drawn) [Compound 8, 7-(2-(4,4-difluoropiperidin-1-yl)pyrimidin-5-yl)-2-(trans-4-(dimethylamino)cyclohexyl)-2,4-dimethyl-N-((6-methyl-4-(methylthio)-2-oxo-1,2-dihydropyridin-3-yl)methyl)benzo[d][1,3]dioxole-5-carboxamide]"
≥ 100,,"CSc1cc(C)[nH]c(=O)c1CNC(=O)c1cc(-c2ccc(N3C[C@@H](C)O[C@@H](C)C3)nc2)c2c(c1C)OC(C)([C@H]1CC[C@H](N(C)CC(F)(F)F)CC1)O2 (single isomer, unassigned) [Compound 108]"
≥ 100,,"CCN1CCC(C2(C)Oc3c(-c4cnc(N5CCOCC5)nc4)cc(C(=O)NCc4c(SC)cc(C)[nH]c4=O)c(C)c3O2)CC1 (stereo not drawn) [Compound 74, 2-(1-ethylpiperidin-4-yl)-2,4-dimethyl-N-((6-methyl-4-(methylthio)-2-oxo-1,2-dihydropyridin-3-yl)methyl)-7-(2-morpholinopyrimidin-5-yl)benzo[d][1,3]dioxole-5-carboxamide]"
,≤ 10,"CSc1cc(C)[nH]c(=O)c1CNC(=O)c1cc(-c2ccsc2)c2c(c1C)OC(C)([C@H]1CC[C@H](N(C)C)CC1)O2 (stereo partly drawn) [Compound 11, 2-(trans-4-(dimethylamino)cyclohexyl)-2,4-dimethyl-N-((6-methyl-4-(methylthio)-2-oxo-1,2-dihydropyridin-3-yl)methyl)-7-(thiophene-3-yl)benzo[d][1,3]dioxole-5-carboxamide]"
,≤ 10,"CSc1cc(C)[nH]c(=O)c1CNC(=O)c1cc(-c2ccc(N3CCSCC3)nc2)c2c(c1C)OC(C)(C1CCN(CC(F)(F)F)CC1)O2 (stereo not drawn) [Compound 34, 2,4-dimethyl-N-((6-methyl-4-(methylthio)-2-oxo-1,2-dihydropyridin-3-yl)methyl)-7-(6-thiomorpholinopyridin-3-yl)-2-(1-(2,2,2-trifluoroethyl)piperidin-4-yl)benzo[d][1,3]dioxole-5-carboxamide]"
,10 to 100,"CSc1cc(C)[nH]c(=O)c1CNC(=O)c1cc(-c2ccc(N3CCCCC3)cc2)c2c(c1C)OC(C)(C1CCN(CC(F)(F)F)CC1)O2 (stereo not drawn) [Compound 90, 2,4-dimethyl-N-((6-methyl-4-(methylthio)-2-oxo-1,2-dihydropyridin-3-yl)methyl)-7-(4-(piperidin-1-yl)phenyl)-2-(1-(2,2,2-trifluoroethyl)piperidin-4-yl)benzo[d][1,3]dioxole-5-carboxamide]"
